Like-named read-outs stand apart in the source and are kept apart here.
How the values were obtained:
[1] = Rate of hydrolysis of LD esters in solution; assay type: physicochemical; conditions: about pH 4.5, about 23° C.
Experimental: At a particular temperature and pH, the LDEs formed of LD and of different alcohols are hydrolyzed prior to their infusion at different rates. […] The rate of hydrolysis of LDE salts also depends on the anion, i.e., on the acid forming the LDE salt. LDE is hydrolyzed more rapidly when carboxylate anions and/or carboxylic acids replace the chloride anion or HCl. The rate of hydrolysis of the salt formed of LDEE and acetic acid can be about 3 times faster at about pH 4.5 at about 23° C. than that of LDEE.HCl, the salt formed of LDEE and HCl. The rate of hydrolysis at a particular pH and temperature can therefore depend on the buffering agent, e.g., citric acid and/or citrate anions, becoming faster when their concentration is elevated. Typically, the concentration of the buffering ions, i.e., the combined concentrations of citrates and citric acid, is between about 5 mM and 100 mM, for example between about 10 mM and 50 mM. The rate of hydrolysis can increase, for example, when the buffering citric acid-citrate concentration is increased.
In aqueous LDE salt pharmaceutical compositions, the hydrolysis rates generally decrease as the pH decreases, and the shelf life of the LDE salt consequently increases, unless the pH is about 1.7±0.5 or less. […] In acidic pharmaceutical compositions the amines of the LDEs are protonated, making the LDEs cations. […] The rates of hydrolysis generally increase with temperature, and may at least about double or about triple for each 10° C. increase, correspondingly decreasing upon cooling.

[2] = initially about pH 3.7±0.2
Experimental: Such a pH can be maintained for example through co-dissolving citric acid and/or a citrate salt, e.g., monosodium citrate, for example to about 10-50 mM concentration. For infusion it is desired, in order to avoid acid-caused pain, to raise the pH at least to pH 2.4±0.3, for example to 2.4±0.3, 2.6±0.3, 2.8±0.3, 3.1±0.3, 3.4±0.3, 3.7±0.3 or to 4.0±0.3, for example by adding citric acid, monosodium citrate, or trisodium citrate.

[3] = 0.44 M LDEE.HCl, pH 3.7±0.1, 4.0° C., 39 weeks, 3 samples
Experimental: The LD concentration was monitored in 3 samples of 0.44 M LDEE.HCl at pH 3.7±0.1 and 4.0° C.

[4] = 25° C., pH 7 or pH 5; cited from earlier work
[5] = about 0.44 M LDEE.HCl infusible composition
[6] = about 1.0 M LDEE.HCl infusible composition
[7] = first infusion, continuous over 16 hours, 0.163 mL/hour, end of infusion

For `CC(=O)O.CCOC(=O)C(N)Cc1ccc(O)c(O)c1` (stereo not shown) [salt formed of LDEE and acetic acid], the “rate of hydrolysis relative to LDEE.HCl” value [1] was “about 3 times”.

For `CCOC(=O)[C@@H](N)Cc1ccc(O)c(O)c1.Cl` [LDEE.HCl, hydrochloride salt of the ethyl ester of L-DOPA], the “Estimated operational life at 30° C.” value [2, 5] was >3 days, the “Estimated operational life at 37° C.” value [2, 5] was >2 days and the “Estimated storage life at 4° C.” value [2, 5] was >1.5 years. The “Estimated storage life at 25° C.” value [2, 5] was >1 months, the “Estimated operational life at 30° C.” value [2, 6] was >2 days and the “Estimated operational life at 37° C.” value [2, 6] was >1 days. The “Estimated storage life at 4° C.” value [2, 6] was >6 months, the “Estimated storage life at 25° C.” value [2, 6] was >2 weeks and the “concentration of LD after refrigerated storage” value [3] was “less than 2 mg/mL”. For the same compound, the pain during infusion (0.48 M LDEE.HCl pH 3.5, 1.25 millimoles per infusion, all three infusions) was “no pain at any time during the infusions”, the “diameter of area with redder skin” value [7] was 3 cm and the “diameter of slightly protruding hard swelling” value [7] was 2.5 cm. For the same compound, the “diameter of palpable induration” value (first infusion, continuous over 16 hours, after 21 hours) was 1 cm, the diameter of induration (first infusion, continuous over 16 hours, after 2 days) was 0.5 cm and the skin symptoms (second infusion, intermittent over 10.5 hours, 0.35 mL/hour, with oral carbidopa, end of infusion) was “no skin symptoms at the end of the infusion”. For the same compound, the skin symptoms (second infusion, intermittent over 10.5 hours, with oral carbidopa, after 11 hours) was “a barely perceptible very lightly pink 2.5 cm diameter zone and a very mild soft palpable swelling”, the skin symptoms (second infusion, intermittent over 10.5 hours, with oral carbidopa, after 36 hours) was “only a barely palpable 3 cm long 1 cm wide soft horizontal induration” and the skin symptoms (third infusion, intermittent over 10.8 hours, 0.35 mL/hour, without oral carbidopa, end of infusion) was “no significant skin symptoms at the end of the infusion”. The skin symptoms (third infusion, intermittent, without oral carbidopa, four hours after end of infusion) was “very slightly more pink over a 2.5 cm diameter zone and there was a small (2 cm×1 cm) barely palpable induration” and the skin symptoms (third infusion, intermittent, without oral carbidopa, fourteen hours after end of infusion) was “the site could be recognized by its pink color”.

For `N[C@@H](Cc1ccc(O)c(O)c1)C(=O)O` [levodopa], the solubility [4] is given as ≤ 5 g per liter.
